T1: S-methyl-5'-thioadenosine phosphorylase (Homo sapiens, UniProt Q13126)
T1 sequence (Q13126 whole entry): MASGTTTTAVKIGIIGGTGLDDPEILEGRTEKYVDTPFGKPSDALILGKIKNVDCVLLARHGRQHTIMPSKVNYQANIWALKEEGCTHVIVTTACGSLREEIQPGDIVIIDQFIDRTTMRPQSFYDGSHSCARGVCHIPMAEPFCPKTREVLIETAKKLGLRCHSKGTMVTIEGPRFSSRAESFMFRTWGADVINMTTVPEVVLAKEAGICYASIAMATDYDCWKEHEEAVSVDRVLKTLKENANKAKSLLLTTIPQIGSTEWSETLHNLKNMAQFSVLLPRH


How the values were obtained:
[1] = target: T1, S-methyl-5'-thioadenosine phosphorylase; experiment: Inhibition of human MTAP as equilibrium dissociation constant
[2] = target: T1, S-methyl-5'-thioadenosine phosphorylase; experiment: Inhibition of human MTAP as initial dissociation constant
[3] = target: T1, S-methyl-5'-thioadenosine phosphorylase; experiment: Inhibition of human MTAP as equilibrium dissociation constant; ND=no slow-onset phase
[4] = substrate: CSC[C@H]1O[C@@H](n2cnc3c(N)ncnc32)[C@H](O)[C@@H]1O; experiment: Km for human MTAP

Ki [1] [pM] | Ki [2] [pM] | Ki [3] | Molecule | Km [4] [µM]
10 | 360 | – | NC1N=CNc2c(CN3CC(O)C(CSc4ccc(Cl)cc4)C3)c[nH]c21 (stereo not drawn) | –
– | 55000 | No slow-onset phase observed | Nc1ncnc2c(CN3CC(O)C(CSCc4ccccc4)C3)n[nH]c12 (stereo not drawn) | –
260 | 900 | – | CC(C)SCC1CN(Cc2c[nH]c3c2NC=NC3N)CC1O (stereo not drawn) | –
270 | 2000 | – | NC1NC=Nc2c(CN3CC(O)C(CSc4cccc(Cl)c4)C3)c[nH]c21 (stereo not drawn) | –
160 | 2000 | – | NC1N=CNc2c(CN3CC(O)C(CSc4ccncc4)C3)c[nH]c21 (stereo not drawn) | –
370 | 760 | – | NC1NC=Nc2c(CN3CC(O)C(CSC4CCCCC4)C3)c[nH]c21 (stereo not drawn) | –
110 | 280 | – | CCCCSCC1CN(Cc2c[nH]c3c2N=CNC3N)CC1O (stereo not drawn) | –
160 | 810 | – | NC1NC=Nc2c(CN3CC(O)C(CSc4ccc(F)cc4)C3)c[nH]c21 (stereo not drawn) | –
120 | 1300 | – | CCCSCC1CN(Cc2c[nH]c3c2NC=NC3N)CC1O (stereo not drawn) | –
90 | 1700 | – | CSCC1CN(Cc2c[nH]c3c(N)ncnc23)CC1O (stereo not drawn) | –
3000 | 22000 | – | CCCC1CN(Cc2c[nH]c3c2N=CNC3N)CC1O (stereo not drawn) | –
700 | 1400 | – | Nc1[nH]cnc2c(CN3CC(O)C(CSCc4ccccc4)C3)cnc1-2 (stereo not drawn) | –
42000 | 85000 | – | NC1N=CNc2c(CN3CC(O)C(COCc4ccccc4)C3)c[nH]c21 (stereo not drawn) | –
34 | 650 | – | CCSCC1CN(Cc2c[nH]c3c2N=CNC3N)CC1O (stereo not drawn) | –
170 | 1500 | – | NC1NC=Nc2c(CN3CC(O)C(CSc4ccccc4)C3)c[nH]c21 (stereo not drawn) | –
8000 | 14000 | – | COCC1CN(Cc2c[nH]c3c2N=CNC3N)CC1O (stereo not drawn) | –
– | – | – | S-methyl-5'-thioadenosine phosphorylase (Homo sapiens), Q13126 (protein) MASGTTTTAVKIGIIGGTGLDDPEILEGRTEKYVDTPFGKPSDALILGKIKNVDCVLLARHGRQHTIMPSKVNYQANIWALKEEGCTHVIVTTACGSLREEIQPGDIVIIDQFIDRTTMRPQSFYDGSHSCARGVCHIPMAEPFCPKTREVLIETAKKLGLRCHSKGTMVTIEGPRFSSRAESFMFRTWGADVINMTTVPEVVLAKEAGICYASIAMATDYDCWKEHEEAVSVDRVLKTLKENANKAKSLLLTTIPQIGSTEWSETLHNLKNMAQFSVLLPRH | 5

From ChEMBL document CHEMBL1140320, “Second generation transition state analogue inhibitors of human 5'-methylthioadenosine phosphorylase” (J Med Chem, 2005)
